Assay results reported in PubChem BioAssay (NCI).
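Growth conditions: 96-well plates. Treatment: test compound, 48 hours, 5 concentrations. Analysis: linear interpolation between bracketing concentrations; unreached endpoints set to highest concentration. GI50 is the concentration that inhibits growth by half. TGI is the concentration that stops growth completely.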

What was measured:
Experiment in all cases: DTP human tumour cell line panel, 48 h
[1] = tested on: HOP-62 NSCLC
[2] = tested on: SK-MEL-2 melanoma
[3] = tested on: SK-MEL-28 melanoma
[4] = tested on: DMS 273 small cell lung
[5] = tested on: LOX IMVI melanoma
[6] = tested on: NCI-H23 lung
[7] = tested on: DLD-1 colon
[8] = tested on: SN12C renal
[9] = tested on: MDA-MB-435
[10] = tested on: DU-145 prostate

## CCCCCCCCCc1cc(=O)c2c(O)cccc2o1
[1]
  TGI: > 100 µM
[2]
  TGI: 64.7 µM
[3]
  TGI: > 100 µM
[4]
  TGI: > 100 µM
[5]
  TGI: 72.3 µM
[6]
  TGI: > 100 µM
[7]
  TGI: > 100 µM
[8]
  TGI: > 100 µM

## O=C(CCC/C(CC(=O)c1ccc(Br)cc1)=N\O)Nc1ccccc1
[1]
  TGI: > 100 µM
[2]
  TGI: > 100 µM
[3]
  TGI: > 100 µM
[5]
  TGI: > 100 µM
[6]
  TGI: > 100 µM
[7]
  TGI: > 100 µM
[8]
  TGI: > 100 µM

## O=C(Nc1ccc([N+](=O)[O-])cc1)C1C(=O)C(=O)N(c2ccc([N+](=O)[O-])cc2)C1=O (stereo unspecified)
[1]
  TGI: > 100 µM
[2]
  TGI: > 100 µM
[3]
  TGI: > 100 µM
[4]
  TGI: > 100 µM
[5]
  TGI: 30.3 µM
[6]
  TGI: > 100 µM
[7]
  TGI: > 100 µM
[8]
  TGI: > 100 µM

## CCOC(=O)C1N(S(=O)(=O)c2ccc(C)cc2)CCC12C(c1ccc(OC)cc1)NC1CCCCC12 (stereo unspecified)
[1]
  TGI: > 100 µM
[3]
  TGI: > 100 µM
[4]
  TGI: > 100 µM
[5]
  TGI: > 100 µM
[6]
  TGI: > 100 µM
[7]
  TGI: > 100 µM
[8]
  TGI: > 100 µM

## CCOC(=O)CCc1c(C)c2c(OC(C)=O)cc(OC(C)=O)cc2oc1=O
[1]
  TGI: > 100 µM
[2]
  TGI: 82.2 µM
[3]
  TGI: > 100 µM
[4]
  TGI: > 100 µM
[6]
  TGI: > 100 µM
[7]
  TGI: > 100 µM
[8]
  TGI: 87 µM

## NC1CCCC[C@H]1N.N[C@@H]1CCCC[C@@H]1N.O=C(P(=O)([O-])[O-])P(=O)([O-])[O-].[Pt+4].[Pt+4]
[1]
  GI50: > 100 µM
  TGI: > 100 µM
[2]
  GI50: > 100 µM
  TGI: > 100 µM
[3]
  GI50: > 100 µM
  TGI: > 100 µM
[4]
  GI50: 32.3 µM
  TGI: > 100 µM
[5]
  GI50: > 100 µM
  TGI: > 100 µM
[6]
  GI50: > 100 µM
  TGI: > 100 µM
[7]
  GI50: > 100 µM
  TGI: > 100 µM
[8]
  GI50: > 100 µM
  TGI: > 100 µM

## CCOC(=O)[C@H](CCCNC(=O)OC(C)(C)C)NCc1ccc(OC)c(OC)c1
[1]
  TGI: > 100 µM
[2]
  TGI: > 100 µM
[3]
  TGI: > 100 µM
[4]
  TGI: > 100 µM
[5]
  TGI: > 100 µM
[6]
  TGI: > 100 µM
[7]
  TGI: > 100 µM
[8]
  TGI: > 100 µM

## Cc1cccc(NC(=O)/C=C/c2ccc(N(CCC#N)CCC#N)cc2C)c1
[1]
  TGI: > 100 µM
[2]
  TGI: > 100 µM
[3]
  TGI: > 100 µM
[4]
  TGI: > 100 µM
[5]
  TGI: > 100 µM
[6]
  TGI: > 100 µM
[7]
  TGI: > 100 µM
[8]
  TGI: > 100 µM

## O=C(CSc1nnc(-c2ccccc2NC(=O)C(F)(F)F)c(=O)[nH]1)NC(=O)Nc1ccccc1
[1]
  TGI: > 100 µM
[2]
  TGI: > 100 µM
[3]
  TGI: > 100 µM
[4]
  TGI: > 100 µM
[5]
  TGI: > 100 µM
[6]
  TGI: > 100 µM
[7]
  TGI: 44.7 µM
[8]
  TGI: > 100 µM

## CCOC(=O)c1[nH]c(COC(C)=O)c(CCCOC(C)=O)c1CCCOC(C)=O
[1]
  TGI: > 100 µM
[2]
  TGI: > 100 µM
[3]
  TGI: > 100 µM
[4]
  TGI: > 100 µM
[5]
  TGI: > 100 µM
[6]
  TGI: > 100 µM
[8]
  TGI: > 100 µM

## O=C(CN1CCCCC1)N1CCc2c([nH]c3ccccc23)C1c1cccnc1 (stereo unspecified)
[1]
  TGI: > 100 µM
[3]
  TGI: > 100 µM
[4]
  TGI: > 100 µM
[5]
  TGI: > 100 µM
[6]
  TGI: > 100 µM
[7]
  TGI: > 100 µM
[8]
  TGI: > 100 µM

## O=C(O)Cc1c(O)ccc2ccccc12
[1]
  TGI: > 100 µM
[9]
  TGI: > 100 µM
[2]
  TGI: > 100 µM
[3]
  TGI: > 100 µM
[5]
  TGI: > 100 µM
[6]
  TGI: > 100 µM
[8]
  TGI: > 100 µM
[10]
  TGI: > 100 µM

## O=C(Nc1ccc(Cl)cc1F)c1cc(Br)ccc1O
[1]
  GI50: 1.25 µM
  TGI: 7.96 µM
[9]
  GI50: 0.941 µM
  TGI: 8.44 µM
[2]
  GI50: 0.467 µM
  TGI: 3.18 µM
[3]
  GI50: 0.563 µM
  TGI: 3.19 µM
[5]
  GI50: 0.769 µM
  TGI: 4.92 µM
[6]
  GI50: 0.659 µM
  TGI: 4.69 µM
[8]
  GI50: 0.788 µM
  TGI: 8.58 µM
[10]
  GI50: 1.89 µM
  TGI: > 100 µM

## Nc1ccncc1/C=C1/C(=O)Nc2ccccc21
[1]
  GI50: 23.6 µM
  TGI: 81.6 µM
[9]
  GI50: 14.4 µM
  TGI: 35.4 µM
[2]
  GI50: 19.4 µM
  TGI: 87.3 µM
[3]
  GI50: 28.9 µM
  TGI: > 100 µM
[5]
  GI50: 28 µM
  TGI: > 100 µM
[6]
  GI50: 31.9 µM
  TGI: > 100 µM
[8]
  GI50: 18.3 µM
  TGI: > 100 µM
[10]
  GI50: 44.9 µM
  TGI: > 100 µM
